Values belong to the compound of their own block, whether it stands above or below them.
How the values were obtained:
[1] = system: decapping activity in HeLa S100 cytoplasmic extract; assay: In vitro decapping assay (release of 7meGDP from cap-labeled RNA, TLC); type: biochemical, human; conditions: for effect of competitor RNA on decapping of AU-rich element-containing RNA substrate: FIG. 6; for activation of decapping in human cytoplasmic extract: cold cap analog added to standard S100 extract
Method: In one embodiment of a manual procedure, the components are as follows (referred to herein as “standard reaction conditions”): • 1 microliter ^7meGpppG or ^7meGTP competitor (50-500 ng/microliter); • 1 microliter RNA (˜5-200 fmol; labeled at the alpha phosphate of the cap); • 4 microliters S100 extract; and • 4 microliters water.
The mixture is incubated at 30° C. for 30 min; aliquots are then taken at designated time points to follow the kinetics of decapping by visualization of the product of decapping, ^7meGDP, by, for example, thin layer chromatography on a cellulose PEI sheet using a mobile phase of 0.45 M ammonium sulfate. Other means for identifying the decapping product are fully embraced herein.
Decapping assays were performed using conditions adapted from Zhang et al (1999b). 10-50 fmoles of cap-labeled RNAs were incubated with 4 microliters HeLa S100 cytoplasmic extract in a 10 microliter reaction in the presence of CE buffer (50 mM Tris pH 7.9, 30 mM (NH4)2SO4, 1 mM MgCl2) and 20 micromolar cap analog (where indicated). Reaction mixtures were incubated at 30° C. for the times indicated and stopped by the addition of 1 microliter of 0.25 M EDTA. Reaction products were separated and identified by thin layer chromatography on PEI cellulose sheets developed in 450 mM (NH4)2SO4. Quantitation was performed using a Molecular Dynamics Phosphorimager. Twenty micrograms of ^7meGMP and ^7meGDP were routinely spotted on TLC plates along with reaction samples to serve as markers that could be visualized by UV shadowing.

[2] = target: T1, HuR (Homo sapiens, UniProt Q15717); assay: UV cross-linking of ARE-binding proteins with ARE competitor RNA; conditions: S100 extract
T1 construct: endogenous in cells; host or cells: HeLa spinner cells, S100 cytoplasmic extract
Method: (§1) UV cross-linking analysis was performed as described (Wilusz and Shenk, 1988). Briefly, 20-50 fmoles of cap-radiolabeled RNA was incubated in the in vitro decapping assay for 5 min. and then reaction mixtures were irradiated on ice for 10 min. using a 15W germicidal light. RNases A and T1 were added and proteins covalently attached to short radioactive RNA oligomers were analyzed on a 10% acrylamide gel containing SDS. For analysis of UV cross-linked DAN/PARN protein by immunoprecipitation using a polyclonal antibody obtained from M. Wormington (Korner et al., 1998), 400 ul of NET2 buffer (50 mM Tris pH 7.6, 150 mM NaCl, 0.01% NP40) was added to reaction mixtures following RNase treatment and reaction mixtures were centrifuged for 4 min. Pre-cleared samples were incubated on ice with 2-5 microliters of specified rabbit polyclonal antisera for 1 hr. Antigen antibody complexes were collected on protein A-positive Staphylococcus aureus cells, washed five times in RIPA buffer (50 mM Tris, pH 7.6, 150 mM NaCl, 0.1% SDS, 1% NP40, 0.5% deoxycholate), and immunoprecipitated cross-linked proteins were analyzed on a 10 or 15% acrylamide gel containing SDS.

[3] = system: unidentified 40 kDa species (ARE-specific RNA binding protein); assay: as above; parameters: species or system human; conditions: S100 extract
Method: as §1

[4] = target: T2, 24 kDa cap binding protein (eIF4E) (Homo sapiens, UniProt P06730); assay: UV cross-linking of cap-labeled RNA to cap-binding proteins
T2 construct: endogenous in cells; host or cells: HeLa spinner cells, S100 cytoplasmic extract
Method: as §1

[5] = target: T3, deadenylase DAN/PARN (Homo sapiens, UniProt O95453); assay: UV cross-linking / immunoprecipitation of DAN/PARN; type: binding
T3 construct: incubated HeLa S100 extracts using cap-labeled GemARE-A60 RNA under decapping conditions; endogenous in cells; host or cells: HeLa spinner cells, S100 cytoplasmic extract
T3 sequence (O95453 1-639): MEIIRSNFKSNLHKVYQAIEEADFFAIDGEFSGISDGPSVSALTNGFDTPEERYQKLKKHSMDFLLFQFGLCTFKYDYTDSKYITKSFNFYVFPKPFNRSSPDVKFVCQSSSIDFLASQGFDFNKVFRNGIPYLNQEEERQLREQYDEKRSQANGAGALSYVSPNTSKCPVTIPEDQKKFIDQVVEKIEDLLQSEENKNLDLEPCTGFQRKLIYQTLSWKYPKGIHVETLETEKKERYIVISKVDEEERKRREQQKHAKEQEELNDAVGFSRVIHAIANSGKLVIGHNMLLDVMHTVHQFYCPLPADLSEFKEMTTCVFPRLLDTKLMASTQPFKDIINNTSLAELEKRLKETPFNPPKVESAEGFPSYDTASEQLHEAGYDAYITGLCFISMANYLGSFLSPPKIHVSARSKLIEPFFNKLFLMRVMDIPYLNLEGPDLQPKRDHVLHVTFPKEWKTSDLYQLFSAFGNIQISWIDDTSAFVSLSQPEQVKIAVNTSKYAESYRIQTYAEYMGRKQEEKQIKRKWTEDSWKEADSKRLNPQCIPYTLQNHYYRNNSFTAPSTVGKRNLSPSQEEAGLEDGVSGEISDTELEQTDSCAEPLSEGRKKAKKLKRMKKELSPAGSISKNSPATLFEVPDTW
Method: as §1

[6] = titration, GemARE-A0 RNA, FIG. 2D
[7] = 5 micromolar cap analog, FIG. 2D

T2 sequence (P06730 whole entry): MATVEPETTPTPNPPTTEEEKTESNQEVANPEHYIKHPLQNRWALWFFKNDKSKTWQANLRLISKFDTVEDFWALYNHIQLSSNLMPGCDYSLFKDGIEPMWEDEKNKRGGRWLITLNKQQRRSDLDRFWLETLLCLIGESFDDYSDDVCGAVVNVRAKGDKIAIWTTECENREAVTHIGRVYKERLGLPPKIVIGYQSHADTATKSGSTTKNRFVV
T1 sequence (Q15717 whole entry): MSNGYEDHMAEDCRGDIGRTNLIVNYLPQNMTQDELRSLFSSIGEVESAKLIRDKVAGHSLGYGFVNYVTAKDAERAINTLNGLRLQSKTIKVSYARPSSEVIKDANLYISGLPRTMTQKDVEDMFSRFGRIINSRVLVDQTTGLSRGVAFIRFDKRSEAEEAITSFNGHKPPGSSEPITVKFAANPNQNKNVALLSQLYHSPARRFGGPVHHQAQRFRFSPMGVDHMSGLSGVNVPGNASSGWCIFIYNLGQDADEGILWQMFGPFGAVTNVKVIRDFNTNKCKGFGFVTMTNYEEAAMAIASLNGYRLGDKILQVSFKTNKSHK

Compound: 5′-GGAUUAACUAAUUGAUACCGCGUAUACACGCGG (RNA, backbone not given here) [control competitor RNA]
- effect of competitor RNA on decapping of AU-rich element-containing RNA substrate ([1]; with cap analog): no effect on decapping efficiency

Compound: 5′AUUAUUUAUUAUUUAUUUAUUAUUUAUUUAUUUA (RNA, backbone not given here) [ARE competitor RNA]
- substrate dependence of the reduction in decapping efficiency ([1]; Gem-A0 versus GemARE-A0, FIG. 6B): only observed with RNA substrates that contained an AU-rich element
- effect of competitor RNA on decapping of AU-rich element-containing RNA substrate ([1]; with cap analog): significantly reduced decapping
- competition of HuR cross-linking [2]: competed
- competition of 40 kDa species cross-linking [3]: competed

Compound: Nc1nc2c(ncn2[C@@H]2O[C@H](COP(=O)(O)OP(=O)(O)OP(=O)(O)OC[C@H]3O[C@@H](n4cnc5c(=O)[nH]c(N)nc54)[C@H](O)[C@@H]3O)[C@@H](O)[C@H]2O)c(=O)[nH]1 [GpppG]
- ability of methylated versus non-methylated cap analogs to activate decapping ([1]; HeLa S100, cap-labeled GemARE-A60 RNA, FIG. 2A): the presence of the methyl group on the cap analog was absolutely required to activate decapping

Compound: Cn1c[n+]([C@@H]2O[C@H](COP(=O)([O-])OP(=O)(O)OP(=O)(O)O)[C@@H](O)[C@H]2O)c2nc(N)[nH]c(=O)c21 [^7meGTP]
- activation of decapping in human cytoplasmic extract [1]: activates the human cytoplasmic extract

- sequestration of 24 kDa cap binding protein [4, 7]: fully sequestered
- competition for cross-linking of 24 kDa protein to cap ([4]; increasing amounts, HeLa S100, FIG. 2B): specifically competed
- full sequestration of DAN/PARN [5, 7]: not
- competition for cap binding by DAN/PARN ([5]; FIG. 2C): specifically competed
- amount required to fully sequester DAN/PARN ([5]; FIG. 2D): 10 µM
Compound: Cn1c[n+]([C@@H]2O[C@H](COP(=O)(O)OP(=O)(O)OP(=O)(O)OC[C@H]3O[C@@H](n4cnc5c(=O)[nH]c(N)nc54)[C@H](O)[C@@H]3O)[C@@H](O)[C@H]2O)c2nc(N)[nH]c(=O)c21 [^7meGpppG]
- activation of decapping of RNA substrates (accumulation of 7meGDP) ([1]; 20 micromolar, 3 independently prepared HeLa cytoplasmic extracts, FIG. 1B): activated decapping
- activation of decapping in human cytoplasmic extract [1]: activates the human cytoplasmic extract
- amount of cap analog giving only partial activation of decapping [1, 6]: 5 micromolar
- amount of cap analog required for full activation of decapping [1, 6]: 10 micromolar

Compound: poly(C)
- effect of other homopolymer on decapping ([1]; all RNA substrates tested, with cap analog, FIG. 4B): did not appreciably affect decapping

Source: patent US6852531B2, “Compositions and methods for reproducing and modulating mammalian messenger RNA decapping” (University of Medicine & Dentistry of NJ, priority 2000, dated 2005)
